Results: ChEMBL document CHEMBL5532667 (J Med Chem, 2024)
In brackets after ≈: the same amount, converted by molar mass.

Tests used:
[1] = biological target: T1, Thyroid hormone receptor beta (Homo sapiens, UniProt P10828); format: cell-based, HEK293T
T1 sequence (P10828 whole entry): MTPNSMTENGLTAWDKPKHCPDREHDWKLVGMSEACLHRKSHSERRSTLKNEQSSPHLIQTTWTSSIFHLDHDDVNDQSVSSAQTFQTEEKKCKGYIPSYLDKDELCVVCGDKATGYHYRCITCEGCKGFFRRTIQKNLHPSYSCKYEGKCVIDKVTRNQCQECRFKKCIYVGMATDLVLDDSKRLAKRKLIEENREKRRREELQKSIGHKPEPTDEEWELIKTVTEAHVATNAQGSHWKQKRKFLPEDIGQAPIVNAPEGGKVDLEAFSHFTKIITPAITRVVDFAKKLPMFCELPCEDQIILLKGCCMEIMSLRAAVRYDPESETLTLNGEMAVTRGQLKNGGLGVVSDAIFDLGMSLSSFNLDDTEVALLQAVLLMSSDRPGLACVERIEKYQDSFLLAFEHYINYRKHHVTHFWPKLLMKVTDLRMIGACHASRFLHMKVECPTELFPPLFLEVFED
Description: Antagonist activity at TRbeta in HEK293T cells assessed as reduction in transcriptional activity incubated for 24 hrs by britelite plus reagent based plate reader assay

Progesterone receptor = biological target: T2, Progesterone receptor (Homo sapiens, UniProt P06401); format: cell-based, HEK293T
T2 sequence (P06401 whole entry): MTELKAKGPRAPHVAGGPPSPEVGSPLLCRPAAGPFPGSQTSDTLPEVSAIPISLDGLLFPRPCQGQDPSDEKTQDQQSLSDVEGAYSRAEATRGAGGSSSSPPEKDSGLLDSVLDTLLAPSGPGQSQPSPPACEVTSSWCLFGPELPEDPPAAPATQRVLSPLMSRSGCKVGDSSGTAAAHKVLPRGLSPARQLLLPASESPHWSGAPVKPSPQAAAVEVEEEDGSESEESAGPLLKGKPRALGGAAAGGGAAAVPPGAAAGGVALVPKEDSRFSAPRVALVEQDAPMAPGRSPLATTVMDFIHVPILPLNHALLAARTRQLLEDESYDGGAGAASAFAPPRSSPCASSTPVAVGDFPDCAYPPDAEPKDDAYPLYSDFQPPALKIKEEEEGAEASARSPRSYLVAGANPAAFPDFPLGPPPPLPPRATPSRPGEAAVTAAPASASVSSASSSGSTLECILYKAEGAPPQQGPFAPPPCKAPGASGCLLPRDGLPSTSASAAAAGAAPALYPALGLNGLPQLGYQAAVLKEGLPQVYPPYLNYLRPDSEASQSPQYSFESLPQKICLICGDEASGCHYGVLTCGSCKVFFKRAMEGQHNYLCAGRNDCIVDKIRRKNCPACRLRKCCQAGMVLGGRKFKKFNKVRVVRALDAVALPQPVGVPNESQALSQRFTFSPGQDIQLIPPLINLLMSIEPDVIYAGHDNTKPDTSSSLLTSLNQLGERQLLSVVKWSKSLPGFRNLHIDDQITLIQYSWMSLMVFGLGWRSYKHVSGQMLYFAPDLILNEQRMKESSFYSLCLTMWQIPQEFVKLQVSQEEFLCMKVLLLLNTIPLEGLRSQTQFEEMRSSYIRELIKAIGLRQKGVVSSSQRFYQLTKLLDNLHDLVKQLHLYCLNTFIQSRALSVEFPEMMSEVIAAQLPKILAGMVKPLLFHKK
Description: Antagonist activity at PR in HEK293T cells assessed as reduction in transcriptional activity incubated for 24 hrs by britelite plus reagent based plate reader assay

in vivo [2] = conditions: C57BL/6, mouse, iv, 1 mg/kg
in vivo [3] = conditions: C57BL/6, mouse, iv, 1 mg/kg; remark: listed apart in the source
in vivo [4] = conditions: C57BL/6, mouse, iv, 1 mg/kg; remark: listed apart in the source
in vivo [5] = conditions: C57BL/6, mouse, iv, 1 mg/kg; remark: listed apart in the source
in vivo [6] = conditions: C57BL/6, mouse, brain, iv, 1 mg/kg
in vivo [7] = conditions: C57BL/6, mouse, iv, 1 mg/kg; remark: listed apart in the source
NIH3T3 = test: cells; conditions: Mus musculus, BALB/c, NIH3T3, light or radiation study
Description: Phototoxicity against BALB/c mouse 3T3 cells assessed as reduction in cell viability preincubated for 1 hr followed by 5 J/cm2 irradiation and subsequent replacement of medium without compound and measured after 24 hrs by neutral red dye based assay

in vitro = conditions: mouse, nih3t3
Description: Dark toxicity against BALB/c mouse 3T3 cells assessed as reduction in cell viability incubated for 1 hr by neutral red dye based assay

C[C@](O)(CN1CC2CC(C1)N2c1ccc(C#N)cc1)C(=O)Nc1cnc(C#N)c(C(F)(F)F)c1
IC50 [1]: > 10 µM | IC50 (Progesterone receptor): 3.5 µM

C[C@](O)(CN1CC2CC(C1)N2c1ccc(C#N)cc1F)C(=O)Nc1cnc(C#N)c(C(F)(F)F)c1
C0 at 24 h (in vivo [2]): 1060 ng/mL | Vd at 24 h (in vivo [3]): 1.35 L/kg | clearance at 24 h (in vivo [4]): 37.8 mL/min/kg | AUC(0-t) at 24 h (in vivo [5]): 444 ng·h/mL | Kp at 24 h (in vivo [6]): 0.45 | half-life at 24 h (in vivo [7]): 54.6 min

CN(C)CCCN1c2ccccc2Sc2ccc(Cl)cc21 [CHLORPROMAZINE]
IC50 (NIH3T3): 0.93 µg/mL (≈ 2.92 µM) | IC50 at 1 h (in vitro): 45.1 µg/mL (≈ 141 µM)
